From the supplement of paper PMC7108870

What was measured:
HEK293sieSTAT3(Y640F) [1] = test: drug sensitivity score (DSS), cytotoxicity CellTox Green (DSS (dimensionless)); higher = more cytotoxic; extreme values may be limits of the assay; details: 72 h; STAT3 variant: Y640F (constitutively active)
In short: (§1)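 For 72 hours at 37°C and 5% CO2, HEK293 cells overexpressing wild-type or mutant STAT3 and carrying a STAT3-dependent luciferase reporter were cultured on compounds at 5 concentrations in 10-fold dilutions. CellTox Green and then CellTiter-Glo signals were read, normalised to negative and positive control wells, and converted in Breeze into a drug sensitivity score based on dose-response curve area. Values are from one representative of two experiments.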

HEK293sieSTAT3(wt) [2] = test: as above; details: 72 h; STAT3 variant: wild type
In short: as §1

HEK293sieSTAT3(Y640F) [3] = test: drug sensitivity score (DSS), viability CellTiter-Glo (DSS (dimensionless)); higher = more growth inhibition; extreme values may be limits of the assay; details: 72 h; STAT3 variant: Y640F (constitutively active)
In short: as §1

HEK293sieSTAT3(wt) [4] = test: as above; details: 72 h; STAT3 variant: wild type
In short: as §1

| Structure (SMILES) | drug sensitivity score (HEK293sieSTAT3(Y640F) [1]) | drug sensitivity score (HEK293sieSTAT3(wt) [2]) | drug sensitivity score (HEK293sieSTAT3(Y640F) [3]) | drug sensitivity score (HEK293sieSTAT3(wt) [4]) |
| --- | --- | --- | --- | --- |
| Cn1cnc2c(F)c(Nc3ccc(Br)cc3Cl)c(C(=O)NOCCO)cc21 [Selumetinib] (top concentration tested 10000 nM) | 0.68 | 0 | 1.4 | 0.99 |
| Cc1cc(C)c(/C=C2\C(=O)Nc3ccccc32)[nH]1 [Semaxanib] (top concentration tested 10000 nM) | 3.22 | 8.57 | 0 | 2.08 |
| c1ccc2c(CCNc3ccc(Nc4ccncc4)cc3)c[nH]c2c1 [Serdemetan] (top concentration tested 10000 nM) | 0 | 1.74 | 5.06 | 7.89 |
| O=C(O)c1ccc2c(c1)nc(Nc1cccc(Cl)c1)c1ccncc12 [Silmitasertib] (top concentration tested 10000 nM) | 0 | 1.84 | 6.52 | 7.79 |
| CO[C@H]1C[C@@H]2CC[C@@H](C)[C@@](O)(O2)C(=O)C(=O)N2CCCC[C@H]2C(=O)O[C@H]([C@H](C)C[C@@H]2CC[C@@H](O)[C@H](OC)C2)CC(=O)[C@H](C)/C=C(\C)[C@@H](O)[C@@H](OC)C(=O)[C@H](C)C[C@H](C)/C=C/C=C/C=C/1C [Sirolimus] (top concentration tested 100 nM) | 0 | 0 | 7 | 9.09 |
| Cc1c(C(=O)Nc2ccc(N3C[C@@H](C)O[C@@H](C)C3)nc2)cccc1-c1ccc(OC(F)(F)F)cc1 [Sonidegib] (top concentration tested 10000 nM) | 0 | 0 | 1.71 | 3.16 |
| C=CCN(/C=C1/C(=O)O[C@H](COC)[C@@]2(C)C1=C(O)C(=O)C1=C2[C@H](OC(C)=O)C[C@]2(C)C(=O)CC[C@@H]12)CC=C [Sonolisib] (top concentration tested 10000 nM) | 2.34 | 0 | 1.67 | 0.33 |
| CNC(=O)c1cc(Oc2ccc(NC(=O)Nc3ccc(Cl)c(C(F)(F)F)c3)cc2)ccn1 [Sorafenib] (top concentration tested 1000 nM) | 1.07 | 0 | 0 | 0.09 |
| CN1CCN(c2nc(C3=C(c4c[nH]c5ccccc45)C(=O)NC3=O)c3ccccc3n2)CC1 [Sotrastaurin] (top concentration tested 10000 nM) | 3 | 0.69 | 3.63 | 5.78 |
| C=CC(=O)Nc1cccc(Nc2nc(Nc3ccc(OCCOC)cc3)ncc2F)c1 [Spebrutinib] (top concentration tested 1000 nM) | 0 | 0 | 2.4 | 0 |
| O=[N+]([O-])c1ccc2c(c1)S(=O)(=O)C=C2 [Stattic] (top concentration tested 50000 nM) | 16.9 | 18.9 | 17.2 | 17.2 |
| CC(C)n1cnc2c(NCCc3ccc(O)cc3)nc(-c3csc4ccccc34)nc21 [StemRegenin 1] (top concentration tested 10000 nM) | 0.52 | 5.48 | 3.04 | 5.04 |
| CN(N=O)C(=O)N[C@@H](C=O)[C@@H](O)[C@H](O)[C@H](O)CO [Streptozocin] (top concentration tested 10000 nM) | 0 | 0 | 0 | 1.93 |
| CCN(CC)CCNC(=O)c1c(C)[nH]c(/C=C2\C(=O)Nc3ccc(F)cc32)c1C [Sunitinib] (top concentration tested 1000 nM) | 0 | 0 | 0.02 | 0 |
| CC(C)(O)CC(=O)NCCn1ccc2ncnc(Nc3ccc(Oc4cccc(C(F)(F)F)c4)c(Cl)c3)c21 [TAK-285] (top concentration tested 2500 nM) | 0 | 0 | 0 | 0 |
| N#Cc1c(Oc2ccc(F)c(NC(=O)Cc3cccc(C(F)(F)F)c3)c2)ccc2nc(NC(=O)C3CC3)sc12 [TAK-632] (top concentration tested 10000 nM) | 0 | 0 | 11.1 | 8.51 |
| CCc1nc(-c2cccc(C)c2)c(-c2ccnc(NC(=O)c3ccccc3)c2)s1 [TAK-715] (top concentration tested 10000 nM) | 0 | 0 | 4.68 | 4.5 |
| Cn1c(=O)c(F)c(Nc2ccc(I)cc2F)c2c(=O)n(C[C@@H](O)CO)cnc21 [TAK-733] (top concentration tested 1000 nM) | 0 | 0 | 1.47 | 0 |
| CCS(=O)(=O)c1cccc(-c2cc(C(=O)NC3CCN(C)CC3)c(C)c3[nH]c4ncc(C)cc4c23)c1 [TAK-901] (top concentration tested 1000 nM) | 0 | 2.83 | 4.54 | 4.52 |
| COc1cc(C(=O)NC2CCN(C)CC2)c(F)cc1Nc1ncc2c(n1)N(C1CCCC1)CC(F)(F)C(=O)N2C [TAK-960] (top concentration tested 2500 nM) | 0.89 | 0 | 0 | 0 |
| Cc1cccc(-c2[nH]c(CNc3ccccc3F)nc2-c2ccc3ncnn3c2)n1 [TEW-7197] (top concentration tested 2500 nM) | 0 | 0.27 | 2.53 | 1.04 |

| Structure (SMILES) | drug sensitivity score (HEK293sieSTAT3(Y640F) [1]) | drug sensitivity score (HEK293sieSTAT3(wt) [2]) | drug sensitivity score (HEK293sieSTAT3(Y640F) [3]) | drug sensitivity score (HEK293sieSTAT3(wt) [4]) |
| --- | --- | --- | --- | --- |
| Nc1nc(N)c2nc(-c3cccc(O)c3)c(-c3cccc(O)c3)nc2n1 [TG100-115] (top concentration tested 10000 nM) | 0 | 0 | 0.15 | 0 |
| Cc1cc(C(C)Nc2ccccc2)c2nc(N3CCOCC3)cc(=O)n2c1 (stereo not drawn) [TGX-221] (top concentration tested 10000 nM) | 0 | 0 | 0.57 | 0 |
| Nc1nc(NC2CC2)cc(-c2cccc(Cl)c2Cl)n1 [TH588] (top concentration tested 25000 nM) | 2.04 | 5.04 | 3.43 | 6.38 |
| NC(=O)Nc1sc(-c2ccc(F)cc2)cc1C(N)=O [TPCA-1] (top concentration tested 25000 nM) | 0.96 | 5.56 | 5.84 | 7.61 |
| Clc1ccccc1C(c1ccccc1)(c1ccccc1)n1cccn1 [TRAM-34] (top concentration tested 1000 nM) | 0 | 0 | 1.41 | 1.55 |
| CC(=O)Nc1ccc(C(=O)Nc2ccccc2N)cc1 [Tacedinaline] (top concentration tested 1000 nM) | 0 | 0 | 4.27 | 2.27 |
| C=CC[C@@H]1/C=C(\C)C[C@H](C)C[C@H](OC)[C@H]2O[C@@](O)(C(=O)C(=O)N3CCCC[C@H]3C(=O)O[C@H](/C(C)=C/[C@@H]3CC[C@@H](O)[C@H](OC)C3)[C@H](C)[C@@H](O)CC1=O)[C@H](C)C[C@@H]2OC [Tacrolimus] (top concentration tested 10000 nM) | 0 | 0 | 0.22 | 0.73 |
| Cn1ncnc1[C@H]1c2n[nH]c(=O)c3cc(F)cc(c23)N[C@@H]1c1ccc(F)cc1 [Talazoparib] (top concentration tested 1000 nM) | 1.02 | 5.13 | 15.9 | 16 |
| C[C@@H]1CN(Cc2ccc(F)cc2)[C@@H](C)CN1C(=O)c1cc2c(C(=O)C(=O)N(C)C)cn(C)c2cc1Cl [Talmapimod] (top concentration tested 10000 nM) | 0 | 0 | 3.93 | 1.23 |
| COc1cc(Nc2ncc(F)c(Nc3ccc4c(n3)NC(=O)C(C)(C)O4)n2)cc(OC)c1OC [Tamatinib] (top concentration tested 10000 nM) | 5.91 | 8.52 | 2.55 | 3.72 |
| CC/C(=C(\c1ccccc1)c1ccc(OCCN(C)C)cc1)c1ccccc1 [Tamoxifen] (top concentration tested 10000 nM) | 2.88 | 8.77 | 4.47 | 5.42 |
| COc1cc2c(N3CCN(C(=O)Nc4ccc(OC(C)C)cc4)CC3)ncnc2cc1OCCCN1CCCCC1 [Tandutinib] (top concentration tested 1000 nM) | 0 | 0 | 0.33 | 1.99 |
| C=CCNC1=C2C[C@@H](C)C[C@H](OC)[C@H](O)[C@@H](C)/C=C(\C)[C@H](OC(N)=O)[C@@H](OC)/C=C\C=C(/C)C(=O)NC(=CC1=O)C2=O [Tanespimycin] (top concentration tested 10000 nM) | 7.34 | 12.8 | 22.1 | 22.6 |
| O[C@H]1CC[C@H](Nc2ncc3nc(Nc4c(F)cc(F)cc4F)n([C@H]4CCOC4)c3n2)CC1 [Tanzisertib] (top concentration tested 10000 nM) | 0 | 0 | 0 | 2 |
| C[C@@H](C(=O)O)c1ccc(-c2ccccc2)c(F)c1 [Tarenflurbil] (top concentration tested 10000 nM) | 0 | 0 | 0.09 | 0.56 |
| Cc1nc(-c2cn3c(n2)-c2ccc(-c4cnn(C(C)(C)C(N)=O)c4)cc2OCC3)n(C(C)C)n1 [Taselisib] (top concentration tested 1000 nM) | 0 | 0.54 | 4.03 | 5.32 |
| COc1cccc2c1c(O)c(C(=O)N(C)c1ccc(C(F)(F)F)cc1)c(=O)n2C [Tasquinimod] (top concentration tested 10000 nM) | 0 | 0 | 0 | 5.07 |
| CCN(c1cc(-c2ccc(CN3CCOCC3)cc2)cc(C(=O)NCc2c(C)cc(C)[nH]c2=O)c1C)C1CCOCC1 [Tazemetostat] (top concentration tested 10000 nM) | 0 | 0 | 0 | 1.85 |
| CNC(=O)c1cc(COc2nnc(Nc3ccc(Cl)cc3)c3ccoc23)ccn1 [Telatinib] (top concentration tested 10000 nM) | 0 | 2.32 | 2.07 | 0 |
| Cn1nnc2c(C(N)=O)ncn2c1=O [Temozolomide] (top concentration tested 100000 nM) | 0.32 | 0 | 0 | 0.36 |
| CO[C@H]1C[C@@H]2CC[C@@H](C)[C@@](O)(O2)C(=O)C(=O)N2CCCC[C@H]2C(=O)O[C@H]([C@H](C)C[C@@H]2CC[C@@H](OC(=O)C(C)(CO)CO)[C@H](OC)C2)CC(=O)[C@H](C)/C=C(\C)[C@@H](O)[C@@H](OC)C(=O)[C@H](C)C[C@H](C)/C=C/C=C/C=C/1C [Temsirolimus] (top concentration tested 100 nM) | 0 | 0 | 11.2 | 17.6 |
